# Source: patent US20200009163A1, “POLYPHOSPHATES AS INHIBITORS OF CALCIUM CRYSTALLIZATION” (priority 2017, published 2020)
# Columns and labels:
# [1] = ISE (ion selective electrode) measurement of inhibition of COM crystallization from aqueous solution; details: FIG. 3
# Description: FIG. 3 depicts experimental results obtained using an example of a LTPP compound (Na5P3O10) and an example of a HMP compound ((NaPO3)6) to inhibit crystallization of […] from aqueous solution. Results for a citrate compound (Na3C6H5O7), which is commonly used in the treatment of kidney stones, is presented for purposes of comparison. In FIG. 3, the x-axis represents a measure of concentration (micromolar (μM) concentration on a logarithmic scale) of the inhibitor present in the solution. The y-axis represents percent inhibition (% reduction in the rate of crystallization) of COM crystallization as compared to a control solution having no inhibitor compounds therein. The effect of the inhibitors on COM growth was estimated using ISE (ion selective electrode) measurements. This measurement technique enables quantification of the extent of inhibition on calcium crystal growth as a function of inhibitor concentration. More specifically, ISE measures free calcium concentration in solution as a function of time to measure the rate of crystallization in the absence and presence of inhibitor. This technique can be used to measure the effectiveness of the polyphosphates and polyphosphate derivatives at inhibiting or modifying calcium crystal growth. The values of “% inhibition” that were obtained by this technique, and presented in FIG. 3 for the different combinations of inhibitor type and concentration, reflect rates of crystallization that have been normalized with respect to the rate of crystallization for a control solution (e.g., inhibitor concentration of zero). The % inhibition refers to the averages of at least 3 separate experiments. The solutions tested were aqueous solutions of calcium chloride (CaCl2)), sodium oxalate (Na2C2O4), and sodium chloride (NaCl). The tested solutions further included the inhibitor/modifier compound at the stated concentration level.
# [2] = Bulk calcium oxalate crystallization, optical microscope images and crystal frequency; details: for calcium oxalate crystals observed (optical microscope): control crystals approximately 25-50 μm along c-axis
# Procedure: (§1) FIG. 4A depicts optical microscope images showing results of calcium oxalate crystallization from a control solution and solutions including LTPP Na5P3O10 at concentrations of 5 μM and 15 μM. FIG. 4B depicts effects of Na5P3O10 concentrations on calcium oxalate crystal frequency. […] Crystals formed from the control solution were approximately 25-50 μm in size as measured along the c-axis, which is the longest dimension.
# as §1, with “FIG. 5A” for “FIG. 4A”, “including HMP (NaPO3)6” for “including LTPP Na5P3O10”, “of 0.3” for “of 5”, “and 0.7” for “and 15”, “FIG. 5B” for “FIG. 4B”, “of (NaPO3)6” for “of Na5P3O10”
# FIG. 6 depicts optical microscope images showing results of calcium oxalate crystallization during bulk studies at different concentrations of LTPP. The leftmost image is a representative control crystal.
compound,measurement,setting,value
"O=C(O)CC(O)(CC(=O)O)C(=O)O [citrate, Na3C6H5O7, reference compound]",percent inhibition (% reduction in the rate of crystallization) of COM crystallization,"[1]; inhibitor concentration of around 320 μM, maximum reached even at much higher concentrations",about 60%
(NaPO3)6 [HMP],percent inhibition (% reduction in the rate of crystallization) of COM crystallization,"[1]; inhibitor concentration of less than about 1 μM, vs control solution without inhibitor",approximately 100%
same,calcium oxalate crystals observed (optical microscope),"[2]; 0.7 μM inhibitor, FIG. 5A",Very small crystals
same,calcium oxalate crystal frequency,"[2]; higher HMP solution concentrations (above 0.7 μM), FIG. 5B",no definitive crystals being observed
Na5P3O10 [LTPP],percent inhibition (% reduction in the rate of crystallization) of COM crystallization,"[1]; inhibitor concentration range of about 5 μM to about 125 μM, vs control solution without inhibitor",30-100%
same,crystal morphology (habit) of calcium oxalate crystals,"[2]; 5 μM and 15 μM inhibitor vs control crystal, FIG. 6",morphology of the crystals change with increasing inhibitor concentration
same,calcium oxalate crystals observed (optical microscope),"[2]; 15 μM inhibitor, FIG. 4A",very small crystals
same,calcium oxalate crystal frequency,"[2]; higher LTPP solution concentrations (above 15 μM), FIG. 4B",no definitive crystals being observed
